Data taken from patent publication US10597388B2, “Pyridazinone herbicides” (FMC CORPORATION, priority 2014, dated 2020).

Legend:
Format in all cases: in vivo
[1] = test system: oilseed rape (Brassica napus); assay: Test D controlled growth environment herbicide test, pre- and postemergence
In short: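 Species sown in silt loam and sprayed preemergence, or grown in peat-based medium to 2–18 cm (1- to 4-leaf stage) and sprayed postemergence, with compounds in non-phytotoxic solvent plus surfactant. Visual injury scored versus controls after 14–21 d in a controlled environment, 0 (no effect) to 100 (complete control).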

[2] = test system: beggarticks (hairy beggarticks, Bidens pilosa); assay: Test E greenhouse herbicide test, pre- and postemergence
Description: (§1) Seeds of plant species selected from corn (Zea mays), soybean (Glycine max), velvetleaf (Abutilon theophrasti), lambsquarters (Chenopodium album), wild poinsettia (Euphorbia heterophylla), pigweed, palmer (palmer pigweed, Amaranthus palmeri), waterhemp (common waterhemp, Amaranthus rudis), surinam grass (Brachiaria decumbens), crabgrass, large (large crabgrass, Digitaria sanguinalis), crabgrass, Brazilian (Brazilian crabgrass, Digitaria horizontalis), panicum, fall (fall panicum, Panicum dichotomiflorum), foxtail, giant (giant foxtail, Setaria faberii), foxtail, green (green foxtail, Setaria viridis), goosegrass (Eleusine indica), johnsongrass (Sorghum halepense), ragweed (common ragweed, Ambrosia elatior), barnyardgrass (Echinochloa crus-galli), sandbur (southem sandbur, Cenchrus echinatus), arrowleaf sida (Sida rhombifolia), Italian ryegrass (Lolium multiflorum), dayflower (Virginia (VA) dayflower, Commelina virginica), field bindweed (Convolvulus arvensis), momingglory (Ipomoea coccinea), nightshade (eastern black nightshade, Solanum ptycanthum), kochia (Kochia scoparia), nutsedge, yellow (yellow nutsedge, Cyperus esculentus), horseweed (Conyza canadensis), and beggarticks (hairy beggarticks, Bidens pilosa), were planted into a silt loam soil and treated preemergence with test chemicals formulated in a non-phytotoxic solvent mixture which included a surfactant.
(§2) At the same time, plants from these crop and weed species and also waterhemp_RES1, (ALS & Triazine resistant common waterhemp, Amaranthus rudis), and waterhemp_RES2, (ALS & HPPD resistant common waterhemp, Amaranthus rudis) were planted in pots containing Redi-Earth® planting medium (Scotts Company, 14111 Scottslawn Road, Marysville, Ohio 43041) comprising spaghnum peat moss, vermiculite, wetting agent and starter nutrients were treated with postemergence applications of test chemicals formulated in the same manner. Plants ranged in height from 2 to 18 cm for postemergence treatments (1- to 4-leaf stage). Treated plants and controls were maintained in a greenhouse for 14 to 21 d, after which time all species were compared to controls and visually evaluated. Plant response ratings, summarized in Table E, are based on a scale of 0 to 100 where 0 is no effect and 100 is complete control. A dash (-) response means no test result.

[3] = test system: crabgrass, Brazilian (Brazilian crabgrass, Digitaria horizontalis); assay: as above
Description: as §1, §2

[4] = test system: foxtail, green (green foxtail, Setaria viridis); assay: as above; conditions: Preemergence
Description: as §1, §2

[5] = test system: field bindweed (Convolvulus arvensis); assay: as above
Description: as §1, §2

[6] = test system: Italian ryegrass (Lolium multiflorum); assay: as above
Description: as §1, §2

[7] = test system: johnsongrass (Sorghum halepense); assay: as above; conditions: Preemergence
Description: as §1, §2

kochia (Kochia scoparia) = assay: as above
Description: as §1, §2

[8] = test system: waterhemp (common waterhemp, Amaranthus rudis); assay: as above
Description: as §1, §2

[9] = test system: nutsedge, yellow (yellow nutsedge, Cyperus esculentus); assay: as above; conditions: Preemergence
Description: as §1, §2

[10] = Postemergence, 31 g ai/ha, scale 0 to 100 (0 no effect, 100 complete control)
[11] = Postemergence, 125 g ai/ha, visual rating on scale 0 (no effect) to 100 (complete control), 14 to 21 d
[12] = Postemergence, 250 g ai/ha, scale 0 to 100 (0 no effect, 100 complete control)
[13] = Preemergence, 125 g ai/ha, scale 0 to 100 (0 no effect, 100 complete control)
[14] = Preemergence, 250 g ai/ha, scale 0 to 100 (0 no effect, 100 complete control)
[15] = postemergence, 62 g ai/ha, scale 0 to 100, 0 no effect, 100 complete control
[16] = 62 g ai/ha, Preemergence, scale 0 to 100 (0 no effect, 100 complete control)
[17] = 125 g ai/ha, Preemergence, scale 0 to 100 (0 no effect, 100 complete control)
[18] = Preemergence, 31 g ai/ha, scale 0 to 100, 0 no effect, 100 complete control
[19] = Preemergence, 250 g ai/ha, visual, scale 0 no effect to 100 complete control
[20] = 62 g ai/ha, scale 0 to 100 (0 no effect, 100 complete control)
[21] = 125 g ai/ha, scale 0 to 100 (0 no effect, 100 complete control)
[22] = 31 g ai/ha, scale 0 to 100, 0 no effect, 100 complete control
[23] = 250 g ai/ha, visual, scale 0 no effect to 100 complete control
[24] = 62 g ai/ha, Postemergence, scale 0 to 100 (0 no effect, 100 complete control)
[25] = 125 g ai/ha, Postemergence, scale 0 to 100 (0 no effect, 100 complete control)
[26] = 250 g ai/ha, Postemergence, scale 0 to 100 (0 no effect, 100 complete control)
[27] = Postemergence, 31 g ai/ha, visual, scale 0 no effect to 100 complete control

Structure (SMILES): C#CCOC(=O)Oc1c(C)nn(C)c(=O)c1-c1c(C)sc2ccc(C)cc12 [Compound 87]
- Oilseed Rape plant response rating [1, 10]: 15
- Plant response rating, Oilseed Rape [1, 11]: 65
- Plant response rating, Oilseed Rape [1, 12]: 75
- Plant response rating (scale of 0 to 100), Oilseed Rape ([1]; Preemergence, 31 g ai/ha): 15
- Plant response rating (scale of 0 to 100), Oilseed Rape ([1]; Preemergence, 62 g ai/ha): 30
- Plant response rating, Oilseed Rape [1, 13]: 30
- Plant response rating, Oilseed Rape [1, 14]: 45
- Plant response rating, Oilseed Rape [1, 15]: 40
- Plant response rating, Beggarticks [2, 16]: 100
- Plant response rating, Beggarticks [2, 17]: 100
- Plant response rating, Beggarticks [2, 18]: 90
- Plant response rating, Beggarticks [2, 19]: 100
- Plant response rating, Crabgrass, Brazil [3, 16]: 80
- Plant response rating, Crabgrass, Brazil [3, 17]: 90
- Plant response rating, Crabgrass, Brazil [3, 18]: 60
- Plant response rating, Crabgrass, Brazil [3, 19]: 100
- Plant response rating, Foxtail, Green [4, 20]: 20
- Plant response rating, Foxtail, Green [4, 21]: 60
- Plant response rating, Foxtail, Green [4, 22]: 20
- Plant response rating, Foxtail, Green [4, 23]: 80
- Plant response rating, Field Bindweed [5, 16]: 98
- Plant response rating, Field Bindweed [5, 17]: 95
- Plant response rating, Field Bindweed [5, 18]: 40
- Plant response rating, Field Bindweed [5, 19]: 100
- Plant response rating, Ryegrass, Italian [6, 16]: 95
- Plant response rating, Ryegrass, Italian [6, 17]: 98
- Plant response rating, Ryegrass, Italian [6, 18]: 75
- Plant response rating, Ryegrass, Italian [6, 19]: 100
- Plant response rating, Johnsongrass [7, 20]: 65
- Plant response rating, Johnsongrass [7, 21]: 70
- Plant response rating, Johnsongrass [7, 23]: 75
- Plant response rating, Kochia (kochia (Kochia scoparia); [16]): 100
- Plant response rating, Kochia (kochia (Kochia scoparia); [17]): 100
- Plant response rating, Kochia (kochia (Kochia scoparia); [18]): 65
- Plant response rating, Kochia (kochia (Kochia scoparia); [19]): 100
- Plant response rating, Waterhemp [8, 16]: 90
- Plant response rating, Waterhemp [8, 17]: 90
- Plant response rating, Waterhemp [8, 18]: 75
- Plant response rating, Waterhemp [8, 19]: 100
- Plant response rating, Nutsedge, Yellow [9, 20]: 60
- Plant response rating, Nutsedge, Yellow [9, 21]: 65
- Plant response rating, Nutsedge, Yellow [9, 22]: 0
- Plant response rating, Nutsedge, Yellow [9, 23]: 60

Structure (SMILES): CC(=O)Oc1c(C)nn(C)c(=O)c1-c1c(C)cc(C)c2ccccc12 [Compound 153]
- Oilseed Rape plant response rating [1, 10]: 70
- Plant response rating, Oilseed Rape [1, 11]: 85
- Plant response rating, Oilseed Rape [1, 12]: 98
- Plant response rating (scale of 0 to 100), Oilseed Rape ([1]; Preemergence, 31 g ai/ha): 75
- Plant response rating (scale of 0 to 100), Oilseed Rape ([1]; Preemergence, 62 g ai/ha): 85
- Plant response rating, Oilseed Rape [1, 13]: 90
- Plant response rating, Oilseed Rape [1, 14]: 100
- Plant response rating, Oilseed Rape [1, 15]: 85
- Plant response rating, Beggarticks [2, 24]: 100
- Plant response rating, Beggarticks [2, 16]: 100
- Plant response rating, Beggarticks [2, 25]: 100
- Plant response rating, Beggarticks [2, 17]: 100
- Plant response rating, Beggarticks [2, 26]: 100
- Plant response rating, Beggarticks [2, 27]: 100
- Plant response rating, Beggarticks [2, 18]: 100
- Plant response rating, Beggarticks [2, 19]: 100
- Plant response rating, Crabgrass, Brazil [3, 24]: 30
- Plant response rating, Crabgrass, Brazil [3, 16]: 70
- Plant response rating, Crabgrass, Brazil [3, 25]: 40
- Plant response rating, Crabgrass, Brazil [3, 17]: 100
- Plant response rating, Crabgrass, Brazil [3, 26]: 50
- Plant response rating, Crabgrass, Brazil [3, 27]: 20
- Plant response rating, Crabgrass, Brazil [3, 18]: 90
- Plant response rating, Crabgrass, Brazil [3, 19]: 100
- Plant response rating, Foxtail, Green [4, 20]: 75
- Plant response rating, Foxtail, Green [4, 21]: 90
- Plant response rating, Foxtail, Green [4, 22]: 50
- Plant response rating, Foxtail, Green [4, 23]: 95
- Plant response rating, Field Bindweed [5, 24]: 90
- Plant response rating, Field Bindweed [5, 16]: 100
- Plant response rating, Field Bindweed [5, 25]: 100
- Plant response rating, Field Bindweed [5, 17]: 100
- Plant response rating, Field Bindweed [5, 26]: 95
- Plant response rating, Field Bindweed [5, 27]: 80
- Plant response rating, Field Bindweed [5, 18]: 90
- Plant response rating, Field Bindweed [5, 19]: 100
- Plant response rating, Ryegrass, Italian [6, 24]: 90
- Plant response rating, Ryegrass, Italian [6, 25]: 90
- Plant response rating, Ryegrass, Italian [6, 17]: 100
- Plant response rating, Ryegrass, Italian [6, 26]: 95
- Plant response rating, Ryegrass, Italian [6, 27]: 85
- Plant response rating, Ryegrass, Italian [6, 18]: 100
- Plant response rating, Ryegrass, Italian [6, 19]: 100
- Plant response rating, Johnsongrass [7, 22]: 0
- Plant response rating, Johnsongrass [7, 23]: 60
- Plant response rating, Kochia (kochia (Kochia scoparia); [24]): 50
- Plant response rating, Kochia (kochia (Kochia scoparia); [25]): 55
- Plant response rating, Kochia (kochia (Kochia scoparia); [17]): 50
- Plant response rating, Kochia (kochia (Kochia scoparia); [26]): 70
- Plant response rating, Kochia (kochia (Kochia scoparia); [27]): 50
- Plant response rating, Kochia (kochia (Kochia scoparia); [18]): 40
- Plant response rating, Kochia (kochia (Kochia scoparia); [19]): 90
- Plant response rating, Waterhemp [8, 25]: 50
- Plant response rating, Waterhemp [8, 17]: 85
- Plant response rating, Waterhemp [8, 26]: 75
- Plant response rating, Waterhemp [8, 27]: 50
- Plant response rating, Waterhemp [8, 18]: 60
- Plant response rating, Waterhemp [8, 19]: 100
- Plant response rating, Nutsedge, Yellow [9, 21]: 80
- Plant response rating, Nutsedge, Yellow [9, 22]: 50
- Plant response rating, Nutsedge, Yellow [9, 23]: 95
